Literature values, collected in US20040198838A1, “Pharmaceutical compositions containig terbinafin and use thereof” (priority 2001, published 2004).

Columns and labels:
[1] = target: CYP2D6 (Homo sapiens, UniProt P10635)
Chain of CYP2D6 (P10635 whole entry): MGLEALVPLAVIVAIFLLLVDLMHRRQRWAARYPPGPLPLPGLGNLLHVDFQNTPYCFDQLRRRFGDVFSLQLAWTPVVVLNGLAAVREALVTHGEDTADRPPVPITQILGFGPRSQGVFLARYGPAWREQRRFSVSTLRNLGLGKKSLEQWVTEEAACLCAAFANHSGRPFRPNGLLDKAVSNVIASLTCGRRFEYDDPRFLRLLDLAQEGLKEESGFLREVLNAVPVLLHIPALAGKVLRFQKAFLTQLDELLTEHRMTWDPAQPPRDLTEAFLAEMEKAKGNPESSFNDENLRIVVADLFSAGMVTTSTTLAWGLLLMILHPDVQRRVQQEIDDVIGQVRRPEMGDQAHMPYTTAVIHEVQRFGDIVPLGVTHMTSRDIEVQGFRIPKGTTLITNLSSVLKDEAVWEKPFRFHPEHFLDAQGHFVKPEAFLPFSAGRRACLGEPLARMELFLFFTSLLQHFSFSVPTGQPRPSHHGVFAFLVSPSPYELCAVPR

- effective half-life (in vivo): about 36 hours
- reduction of clearance (patients with renal impairment (creatinine clearance up to 50 ml/min) or hepatic cirrhosis): approximately 50%
- area under the curve over 24 hours (AUC) (single 250 mg terbinafine dose): about 4.56 μg.hour/ml
- peak drug plasma concentration (Cmax) (single 250 mg terbinafine dose): about 1 μg/ml
- time to peak drug plasma concentration (single 250 mg terbinafine dose): ≤ 2 h
- factor of AUC increase in steady state versus single dose (steady state): 2.5
- increase of peak blood concentration (Cmax) in steady state versus single dose (steady state): 25%
- change in AUC when administered with a meal (with a meal): moderate increase
- inhibition of CYP2D6 [1]: potent inhibitor
SMILES: CN(C/C=C/C#CC(C)(C)C)Cc1cccc2ccccc12 [terbinafine, Terbinafine]
